Experimental findings from PubChem BioAssay (NCI) are described below.

Test systems include BT-549 breast; PC-3 prostate; MALME-3M melanoma; NCI-H460 lung; 786-0 renal; HCT-15 colon; SK-MEL-5 melanoma; M14 melanoma; NCI-H226 lung.
What all share (test): DTP human tumour cell line panel, 48 h

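Assay format: 96-well plates, 48-hour exposure. TGI is the concentration that stops growth completely.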

As a reminder, the TGI is the concentration giving total growth inhibition. Turning to `CCOC(=O)c1nc2ccccc2nc1Nc1ccc(C(=O)OC)s1`, the total growth inhibition concentration (TGI) in the assay on BT-549 breast, in the assay on PC-3 prostate, in the assay on MALME-3M melanoma, in the assay on NCI-H460 lung, in the assay with 786-0 renal and in the assay on HCT-15 colon was > 100 µM each time. The TGI with SK-MEL-5 melanoma and in the assay with M14 melanoma was > 100 µM throughout.
Turning to `CCOP(=O)(OCC)C(Nc1ccc(Cl)cc1)c1ccc(F)cc1` (configuration not stated), the TGI is 42.3 µM with MALME-3M melanoma; 48.2 µM with NCI-H460 lung; 43.4 µM with 786-0 renal; 88 µM in the assay with NCI-H226 lung; > 100 µM in the assay on HCT-15 colon; 32.8 µM with SK-MEL-5 melanoma. Further, the TGI in the assay with M14 melanoma stood at 37.2 µM.
Turning to `CC1(C)CC(=O)c2c(N)n[nH]c2C1`, the concentration for total growth inhibition (TGI) with BT-549 breast, in the assay on PC-3 prostate, in the assay with MALME-3M melanoma, with NCI-H460 lung, in the assay on 786-0 renal and with NCI-H226 lung was > 100 µM in each case. The total growth inhibition concentration (TGI) in the assay with SK-MEL-5 melanoma and in the assay with M14 melanoma was > 100 µM throughout.
Regarding `O/N=C1\C/C(=N\O)c2c(Br)sc(Br)c21`, the TGI in the assay on BT-549 breast is > 100 µM; in the assay on MALME-3M melanoma, > 100 µM; in the assay with NCI-H460 lung it was > 100 µM; with 786-0 renal, > 100 µM; in the assay on NCI-H226 lung, > 100 µM; in the assay with HCT-15 colon, 41.7 µM. In addition, the TGI in the assay on SK-MEL-5 melanoma and with M14 melanoma was > 100 µM in each case.
As for `Cc1ccc(/C=c2\c(=O)[nH]c3nc4ccccc4c(=O)n23)cc1`, the TGI in the assay on BT-549 breast was 60.3 µM; in the assay with PC-3 prostate, > 100 µM; in the assay with MALME-3M melanoma, > 100 µM; in the assay with 786-0 renal, > 100 µM; in the assay with HCT-15 colon, > 100 µM; in the assay with M14 melanoma, > 100 µM.
Regarding `CCOC(=O)c1ccc2nc3n(c2c1)C(c1c(F)cccc1F)SC3` (configuration not stated), the TGI in the assay with BT-549 breast is > 100 µM; in the assay on PC-3 prostate, > 100 µM; in the assay with NCI-H460 lung, > 100 µM; with 786-0 renal, > 100 µM; in the assay on NCI-H226 lung it was 87 µM; in the assay on HCT-15 colon it was > 100 µM. In addition, the total growth inhibition concentration (TGI) in the assay with SK-MEL-5 melanoma and in the assay with M14 melanoma was > 100 µM in each case.
On to `CCCCCCc1ccc(CCCCCCCC(=O)O)o1`, for which the TGI in the assay with BT-549 breast, with PC-3 prostate, in the assay on NCI-H460 lung, in the assay with 786-0 renal, in the assay with NCI-H226 lung and with HCT-15 colon was > 100 µM in each case. In addition, the concentration for total growth inhibition (TGI) in the assay on SK-MEL-5 melanoma and in the assay with M14 melanoma was > 100 µM each time.
As for `O=S(=O)(O)c1ccc(O)c(N=Nc2c(O)ccc3ccccc23)c1`, the total growth inhibition concentration (TGI) with BT-549 breast, with PC-3 prostate, in the assay on 786-0 renal, in the assay with NCI-H226 lung, with HCT-15 colon and with SK-MEL-5 melanoma was > 100 µM throughout. In the assay on M14 melanoma, the TGI is > 100 µM.
For the compound `Cc1nc(N)c(N2CCN(S(=O)(=O)N(Cc3ccccc3)Cc3ccccc3)CC2)c(=O)[nH]1`, the total growth inhibition concentration (TGI) with BT-549 breast is > 100 µM; with PC-3 prostate, 46.5 µM; in the assay with MALME-3M melanoma, 56.6 µM; in the assay on NCI-H460 lung, > 100 µM; with 786-0 renal it was > 100 µM; with NCI-H226 lung, > 100 µM. The TGI with HCT-15 colon and in the assay with M14 melanoma was > 100 µM each time.
On to `NS(=O)(=O)c1nnc(NS(=O)(=O)c2cccc3cccnc23)s1`, for which the TGI in the assay on BT-549 breast, with NCI-H460 lung, in the assay with 786-0 renal, in the assay on NCI-H226 lung, in the assay on HCT-15 colon and in the assay with SK-MEL-5 melanoma was > 100 µM throughout. Moreover, in the assay on M14 melanoma, the TGI is > 100 µM.
As for `CC1CN(c2cc3c(cc2F)c(=O)c(C(=O)O)cn3-c2ccc(N3CCN(C)CC3)cn2)CC(C)N1` (configuration not stated), the TGI in the assay on BT-549 breast, with PC-3 prostate, in the assay on MALME-3M melanoma, in the assay on NCI-H460 lung, in the assay on 786-0 renal and in the assay with NCI-H226 lung was > 100 µM in each case. Moreover, the TGI in the assay with HCT-15 colon and in the assay with M14 melanoma was > 100 µM in each case.
Consider `CC(C)OC1=C(CC2(C)OCCO2)C(=O)C12OCCO2`, for which the total growth inhibition concentration (TGI) in the assay on BT-549 breast, in the assay on PC-3 prostate, in the assay with NCI-H460 lung, with 786-0 renal, in the assay on NCI-H226 lung and with HCT-15 colon was > 100 µM in each case. For the same compound, the total growth inhibition concentration (TGI) in the assay on SK-MEL-5 melanoma and in the assay with M14 melanoma was > 100 µM in each case.
With `N=c1ncn(C/C=C/c2ccccc2)c2nc[nH]c12`, the TGI in the assay on BT-549 breast, in the assay on PC-3 prostate, in the assay on MALME-3M melanoma, in the assay with NCI-H460 lung, with 786-0 renal and in the assay on HCT-15 colon was > 100 µM in each case. The TGI with SK-MEL-5 melanoma and in the assay with M14 melanoma was > 100 µM in each case.
For the compound `NC1(c2cc3ccccc3s2)CCCCCC1`, the TGI in the assay with BT-549 breast was 32.6 µM; in the assay on PC-3 prostate, 24 µM; in the assay with NCI-H460 lung, 28.6 µM; with 786-0 renal, 28.8 µM; in the assay with NCI-H226 lung it was 38.4 µM; in the assay on HCT-15 colon, 36.9 µM. The total growth inhibition concentration (TGI) came to 28.8 µM in the assay with SK-MEL-5 melanoma and 37.2 µM in the assay on M14 melanoma.
As for `COc1ccc(/C(=N/O)c2ccccc2C2=Nc3ccccc3C(NCc3ccccc3)O2)cc1C` (configuration not stated), the TGI with PC-3 prostate is > 100 µM; in the assay on MALME-3M melanoma it was 52.7 µM; in the assay on NCI-H460 lung, > 100 µM; in the assay with 786-0 renal, > 100 µM; in the assay on NCI-H226 lung, > 100 µM; with HCT-15 colon it was > 100 µM. Moreover, the results for the TGI in the assay with SK-MEL-5 melanoma and with M14 melanoma were 32.8 µM and > 100 µM, respectively.
Regarding `CCN(CC)/N=C\c1c2ccccc2cc2ccccc12`, the TGI in the assay with BT-549 breast, in the assay on PC-3 prostate, with MALME-3M melanoma, in the assay with NCI-H460 lung, in the assay with 786-0 renal and in the assay on HCT-15 colon was > 100 µM each time. Also, the total growth inhibition concentration (TGI) in the assay on SK-MEL-5 melanoma is 40.2 µM; in the assay on M14 melanoma it was 51.6 µM.
Turning to `COc1cc(C2c3cccc4cccc(c34)C3CCC(=O)N32)cc(OC)c1O` (configuration not stated), the TGI in the assay on BT-549 breast, with PC-3 prostate, in the assay with NCI-H460 lung, in the assay with 786-0 renal, in the assay on NCI-H226 lung and in the assay on HCT-15 colon was > 50 µM in each case. The TGI in the assay on M14 melanoma was > 50 µM.
In the case of `COC(=O)N[C@@H]1C[C@H]2CC[C@]1(O[Si](C(C)C)(C(C)C)C(C)C)C(=O)C2`, the TGI was 33.9 µM with PC-3 prostate; > 100 µM with NCI-H460 lung; 69 µM with 786-0 renal; 33 µM in the assay on NCI-H226 lung; 41.4 µM in the assay on HCT-15 colon; > 100 µM with SK-MEL-5 melanoma. In the assay on M14 melanoma, the TGI stood at 62.8 µM.
Consider `[N-]=[N+]=Nc1cc(=O)[nH]c2ccccc12`, for which the total growth inhibition concentration (TGI) with BT-549 breast, with PC-3 prostate, in the assay on MALME-3M melanoma, in the assay with 786-0 renal, in the assay with NCI-H226 lung and in the assay on SK-MEL-5 melanoma was > 100 µM throughout. Besides, the TGI with M14 melanoma was > 100 µM.
In the case of `CN(C)C(=O)N1N[C@H](c2ccccc2)[C@@H]1c1ccccc1`, the TGI in the assay with PC-3 prostate, in the assay on MALME-3M melanoma, in the assay on 786-0 renal, in the assay on NCI-H226 lung, in the assay with HCT-15 colon and in the assay on SK-MEL-5 melanoma was > 100 µM each time. For the same compound, the TGI in the assay with M14 melanoma is > 100 µM.
Turning to `O=C1CCCC1CC(CN1CCOCC1)Sc1nnnn1-c1ccccc1` (configuration not stated), the concentration for total growth inhibition (TGI) with BT-549 breast, with PC-3 prostate, in the assay on MALME-3M melanoma, with 786-0 renal, in the assay with NCI-H226 lung and in the assay on SK-MEL-5 melanoma was > 100 µM throughout. The total growth inhibition concentration (TGI) in the assay with M14 melanoma is > 100 µM.
For the compound `COC(=O)/C=C1\C(CO[Si](C)(C)C(C)(C)C)OC(n2cc(C)c(=O)n(C)c2=O)C1O[Si](C)(C)C(C)(C)C` (configuration not stated), the TGI with PC-3 prostate, with MALME-3M melanoma, in the assay with 786-0 renal, with NCI-H226 lung, in the assay with HCT-15 colon and in the assay with SK-MEL-5 melanoma was > 100 µM each time. For the same compound, the total growth inhibition concentration (TGI) with M14 melanoma is > 100 µM.
For the compound `N#Cc1c(/C=C/c2ccccc2)c2c([nH]c1=S)CCCCC2`, the TGI with PC-3 prostate, with MALME-3M melanoma, in the assay on NCI-H460 lung, with 786-0 renal, with NCI-H226 lung and in the assay with HCT-15 colon was > 100 µM in each case. Further, the concentration for total growth inhibition (TGI) with SK-MEL-5 melanoma and in the assay with M14 melanoma was > 100 µM throughout.
For the compound `CCCN=C1NC(C)=CSC(Nc2ccccc2)=C1C#N`, the TGI with PC-3 prostate, in the assay with MALME-3M melanoma, with 786-0 renal, with HCT-15 colon, in the assay on SK-MEL-5 melanoma and in the assay with M14 melanoma was > 100 µM in each case.
In the case of `CC(C)(C)OC(=O)N1C(=O)C2CCCC21` (configuration not stated), the total growth inhibition concentration (TGI) in the assay on BT-549 breast, in the assay with PC-3 prostate, in the assay on NCI-H460 lung, with 786-0 renal, in the assay on NCI-H226 lung and with HCT-15 colon was > 100 µM in each case. The TGI in the assay on SK-MEL-5 melanoma and in the assay with M14 melanoma was > 100 µM throughout.
